In general, Kd refers to the concentration at which binding is half-saturated. The low end stands for tighter binding, the high end for weaker binding.

Data on two compounds can be found in patent publication US12134601B2, “Compounds for inhibiting LY6K and methods of using same” (The Henry M. Jackson Foundation for the Advancement of …, priority 2017, dated 2024).

The target in series [1] is T1, human Ly6K protein (Homo sapiens, UniProt Q17RY6).
T1 construct: correspond to residues 18-138, which constitute the mature form of Ly6K; His tag (N); made in house; host or cells: E. coli BL21DE
T1 sequence (Q17RY6 18-138): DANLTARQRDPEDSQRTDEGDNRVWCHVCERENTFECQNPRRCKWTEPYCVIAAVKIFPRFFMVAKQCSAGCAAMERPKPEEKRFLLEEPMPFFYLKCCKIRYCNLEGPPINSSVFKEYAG
In words: Surface plasmon resonance binding to immobilized Ly6K (Biacore T100). As for the experimental part: (§1) FIG. 11: Small molecule binders of Ly6K. (A) Mature form of Ly6E, Ly6D and Ly6K were cloned in pET24a N-term His tag vector (Epoch Biosciences); expressed in BL21DE E. coli; purified recombinant protein was prepared using histidine column in using a batch purification method and eluted in 500 mM imidazole PBS, dialyzed in PBS. 5 μl of eluate was run on the 15% SDS-PAGE showing the purity with expected size protein of single band. (B) Structure of NSC243928. (G) Structure of NSC11150. (C-F; H-K) Representative surface plasmon resonance (SPR) sensorgrams show time on X-axis and SPR binding response on Y-axis. […] The corresponding data for NSC11150 are shown in corresponding lower panel.
We used surface plasmon resonance to identify small molecule binders of Ly6K. We screened a panel of 2000 small molecules, obtained from the Developmental Therapeutic Program (DTP, NCI). […] These five molecules were further tested for their ability to induce cell death, TGFβ1/Smad2/3 phosphorylation, IFNγ/Stat1 phosphorylation and PD-L1 protein expression. NSC243928 and NSC11150 were selected for further study on the basis of specificity and selectivity in bio-assays and structural flexibility, which allow future modifications required for in-depth studies (described in FIG. 11). The small molecule NSC243928 has been previously used in an in vivo anti-tumor screen by the NCI on a L1210 leukemia model in BDF1 syngeneic mice, a standard model used between 1955 and 1975. The average survival in this tumor model is 2-3 weeks. Treatment with NSC243928 increased survival benefit from 30% to 100% in a dose dependent manner. […] NSC11150 was not tested in in-vivo or in-vitro anti-tumor screens. […] As discussed infra, NSC243928 and NSC11150 inhibit TGFβ and PD-L1 pathways in a Ly6K dependent manner, indicating a mechanistic basic for the novel activities of these compounds (please see FIG. 11, 12). These experiments provide proof of the principle that small molecule targeting of Ly6K will have functional consequences and potentially lead to a better outcome in cancer treatment. […]
(In general: Surface plasmon resonance follows binding to a sensor surface in real time, without labels.)

Series [2] deals with 4T1 mammary tumor. In words: 4T1 mammary tumor growth in syngeneic mouse model. It is filed as in vivo, mice (Balb/c). As to conditions: 5 mg/kg/i.p. after tumor establishment at 50-70 mm^3. The source says:
FIG. 4: Ly6K is required for tumor growth in syngeneic mammary tumor models. (A) The qRT-PCR analysis using […] gene expression assay for mRNA levels in scrambled shRNA (Con) and Ly6K knockdown (Ly6K sh) cells. (B) The western blot analysis (cell signaling antibodies). (C) For 4T1 model, 20K cells/site in Balb/c mice and for E0771, 500K cells/site in C57BL/6 syngeneic mice were transplanted into lower mammary fat pad by subcutaneous injection (number of mice 10 per cell line pair). Tumor measurements were performed using a Vernier caliper. The tumor volumes were calculated using equation 1⁄2*length*(width*width). ** indicates p<0.001 and NS=non-significant (p>0.05) in a two tailed student T-test. FIG. 5: Effect of small molecules on in vivo tumor growth. (A) NCI data-Indicated doses of NSC243928 in saline were given by intraperitoneal route (i.p.) every day for 9 days to BIDF syngeneic mice carrying […] leukemia cells. Each group has 6 mice. Mouse were monitored for 30 days after drug treatment. […] The ** represents p<0.005 in a two tailed student T-test. Each group has 10 mice. We used surface plasmon resonance to identify small molecule binders of Ly6K. We screened a panel of 2000 small molecules, obtained from the Developmental Therapeutic Program (DTP, NCI). […]

The subject of series [3] is TGFβ1/Smad2/3 signaling. Nature of the series: TGFβ1-induced Smad2/3 phosphorylation (western blot). It is filed as cell-based, human. As to conditions: 2 μM drug, 30 minutes. On the procedure:
(§2) FIG. 12: Effect of small molecule binders of Ly6K. (A) Indicated cells were seeded and allowed to attach overnight, then treated with 2 μM drugs for 72 hours. Cell titer assay was performed to measure cell growth. (B) Cells were serum starved and treated with 100 ng/ml IFNγ with 2 μM drugs. PD-L1 was measure in live cells (using a zombie live-dead stain) as described in FIG. 3A. The graph was plotted from three experiments. (C, D) Indicated cells were allowed to attach, serum starved overnight and then treated with TGFβ (C) or IFNγ (D) in the presence of 2 μM drug for 30 minutes and western blot analysis was performed. The *** represents p<0.0005 and NS=non-significant in a two-tailed student T-test.
(§3) NSC243928 inhibited the TGFβ1 induced phosphorylation of Smad2/3; NSC11150 had no effect on TGFβ1/Smad2/3 signaling (FIG. 12C). NSC11150 inhibited IFNγ induced phosphorylation of Stat1; NSC243928 had no effect on IFNγ/Stat1 signaling (FIG. 12D).
In general terms: In western blotting, separated proteins are transferred to a membrane and probed.

Series [4] addresses T2, Ly6E (Homo sapiens, UniProt Q16553).
T2 construct: Mature form of Ly6E, Ly6D and Ly6K were cloned in pET24a N-term His tag vector; His tag (N); made in house; host or cells: E. coli BL21DE
T2 sequence (Q16553 21-101 limits assumed): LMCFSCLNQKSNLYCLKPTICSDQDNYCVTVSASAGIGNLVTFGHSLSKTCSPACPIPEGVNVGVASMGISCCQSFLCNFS
Nature of the series: Surface plasmon resonance binding to Ly6E. On the procedure: as §1
(§4) We performed a surface plasmon resonance assay using the Biacore T100 by immobilizing the purified human Ly6K protein on the surface of a CM5 chip and screening the binding with a small molecule library containing 2000 compounds (Developmental Therapeutics Program, NCI). An initial screening of molecules was performed at 1 or 10 μM compound, based on solubility. We used a model that compares the actual binding maximum (RUactual) with the theoretical binding maximum (RUtheor). […] Hits (RUactual to RUtheor of 0.7-2.0) were then reviewed by a team of medicinal chemists and those with structural potential were selected for further study. […]

The target of series [5] is T3, Ly6D (Homo sapiens, UniProt Q14210).
T3 construct: Mature form of Ly6E, Ly6D and Ly6K were cloned in pET24a N-term His tag vector; His tag (N); made in house; host or cells: E. coli BL21DE
T3 sequence (Q14210 21-98 limits assumed): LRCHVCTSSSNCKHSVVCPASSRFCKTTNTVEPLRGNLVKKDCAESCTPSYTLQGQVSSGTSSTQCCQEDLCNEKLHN
In words: Surface plasmon resonance binding to Ly6D. On the procedure:
as §1, §4

The test system of series [6] is IFNγ/Stat1 signaling. Nature of the series: IFNγ-induced Stat1 phosphorylation (western blot). As to conditions: 2 μM drug, 30 minutes. The class given is cell-based, human. On the procedure: as §2, §3
The subject of series [7] is PD-L1. Nature of the series: IFNγ-induced PD-L1 protein expression in live cells (flow cytometry). As to conditions: control cells, 100 ng/ml IFNγ, 2 μM drug. It is filed as cell-based, human. On the procedure: FIG. 3: Ly6K is required for IFNγ/PD-L1 pathway. (A) Indicated cells were serum starved prior to treatment with IFNγ 100 ng/ml overnight. Cells were labeled with anti-PD-L1 BV540 antibody or isotype control antibody prior to fixation to assess the cell surface expression of PD-L1 protein. Percentage of high PD-L1 cells were plotted in a bar graph from three different experiments and subjected to a two tailed student T-test, wherein p<0.05 is considered significant. (B) Western blotting analysis for indicated proteins. (C) Hypothesized effect of Ly6K on IFNγ/Stat1 pathway leading to increased PD-L1.
as §2, with “T-test. […]” for “T-test.”

Series [8] has as its system MDA-MB-231 cells (control and Ly6K knockdown). Nature of the series: Cell titer assay of cell growth / cell death. Conditions: for Cell growth: 72 hours. The class given is cell-based, human. On the procedure:
as §2, with “(A) Indicated cells were seeded and allowed to attach overnight, then treated with 2 μM drugs for 72 hours.” left out
as §3

Series [9] can be described thus: Preliminary experiments for maximum tolerated dose. The class given is in vivo. Conditions: 5 mg/kg/ip.
Series [10] relates to L1210 leukemia. As to conditions: up to 10 mg/kg/i.p.; cited from earlier work.

For `Oc1ccc(Cc2ccc(Cl)cc2)c(O)c1` [NSC11150, 4-(4-chlorobenzyl)benzene-1,3-diol], the “SPR binding response to Ly6K” value in [1] is “binding response in dose dependent manner”. This compound also gave a dissociation constant Kd in series [1] (SPR) of 1600 nM. In addition, the “4T1 mammary tumor growth” value in series [2] is recorded as “suppress 4T1 mammary tumor growth”. The “TGFβ1 induced phosphorylation of Smad2/3” value in series [3] is “had no effect”. Also, the “SPR binding response to Ly6E” value in series [4] is “don't show binding response”. Besides, the “SPR binding response to Ly6D” value in series [5] was “don't show binding response”. In addition, the “IFNγ induced phosphorylation of Stat1” value in [6] is recorded as “inhibited”. Moreover, the PD-L1 protein expression entry in series [7] is reported as “inhibition of PD-L1 expression”. Besides, the “Effect on cell death” value in series [8] (2 μM) is given as “did not show significant effect”. Further, the Cell death entry in series [8] (100 μM, both control and Ly6K knockdown cells) is on record as “induced cell death”. In series [9], the Therapeutic benefit entry is “therapeutic benefit”.

With `CCS(=O)(=O)Nc1ccc(Nc2c3ccccc3nc3ccccc23)c(OC)c1.CS(=O)(=O)O` [NSC243928, 4′-(9-Acridinylamino)-3′-methoxyethanesulfonanilide methanesulfonate], the “SPR binding response to Ly6K” value in series [1] is “binding response in dose dependent manner”. The “4T1 mammary tumor growth” value in series [2] is recorded as “suppress 4T1 mammary tumor growth”. Also, in series [3], the “TGFβ1 induced phosphorylation of Smad2/3” value is on record as “inhibited”. For the same compound, in series [4], the “SPR binding response to Ly6E” value was “don't show binding response”. The “SPR binding response to Ly6D” value in [5] is “don't show binding response”. In addition, in series [6], the “IFNγ induced phosphorylation of Stat1” value is listed as “had no effect”. The Toxicity entry in series [10] was “not found to be toxic”. For the same compound, the PD-L1 protein expression entry in series [7] is given as “did not show significant effect”. Also, in [8] (Ly6K knockdown MDA-MB-231 cells, 2 μM), the Cell growth entry was “lost its activity”. Also, the Cell growth result in series [8] (control MDA-MB-231 cells, 2 μM) is “diminished the growth”. For the same compound, in series [9], the Therapeutic benefit entry is “therapeutic benefit” and the Visible toxicity entry was “no visible toxicity”.
